From patent US20180325930A1, “Use of Oligosaccharide Compounds for Activating Angiogenesis” (Urgo Recherche Innovation et Developpement, priority 2015, published 2018)

Tested on: chick embryo chorioallantoic membranes (CAM)
Test: chicken ex ovo chorioallantoic membrane (CAM) angiogenesis model
Format: in vivo
Text: This consists of a vascularised membrane found in bird or reptile eggs. In mammals, this structure forms the placenta. The model for the study will be a chicken ex OVO (without the shell) CAM model.
Fertilised chicken eggs were used.
For the study, VEGF-A was used as the positive control.
Potassium sucrose octasulphate salt (KSOS) is presented in the form of a solution at different concentrations, buffered with PBS.
A PBS buffer solution was used as a negative control.
On receipt, the eggs are stored at 13° C. to stop the development thereof until the time of the study. The eggs are then placed in incubation in a hatcher at 37° C. to enable the development of the embryo.
At 3 days, the eggs are broken unto a weighing cup so as to remove the shell, thereby rendering the embryo and all the structures accessible for future treatment. The ex ovo embryos are then placed back in the hatcher where they will continue the in vitro development thereof.
The embryos will be treated in the vehicle (PBS only), VEGF or different concentration of KSOS.
The treatment area is delimited by a silicone ring 1 cm in diameter and 0.2 in thickness. The treatment volume is 25 μl. The treated embryos are placed back in the hatcher for 48 hours.
After 48 hours of incubation, 10% skimmed milk is injected between the CAM and the yolk to separate the 2 vascularisations and increase the contrast for an optimal photographic shot. A photo is taken of the treatment area with a NIKON AZ 1 OO, NIS-element capture software, with 0.5×4 magnification.
On the basis of these photos, a number of parameters were determined using the image analysis software: • a) the total tube length (sum of the lengths of each vessel in the image), • b) the number of segments (total number of vessels connected to a branch point), • c) the number of branch points (total number of junctions connected to a segment). • b and c are representative of the formation of new characteristic vessels of angiogenesis.

Row | Compound | angiogenesis activation (significance with respect to VEGF-A or 100 mg/mL KSOS) (30 mg/mL, 48 hours) | vascular network visible (30 mg/mL, 48 hours) | angiogenesis activation (significance with respect to VEGF-A or 100 mg/mL KSOS) (50 mg/mL, 48 hours) | vascular network visible (50 mg/mL, 48 hours) | 3 parameters measured (total tube length, number of segments, number of branch points), image analysis vs PBS (100 mg/mL, 48 hours) | angiogenesis activation compared with positive control VEGF-A (100 mg/mL, 48 hours) | vascular network observed on photos (100 mg/mL, 48 hours) | CAM vascularisation at the treatment area (overall, according to the dose) (3-100 mg/mL, 48 hours) | vascular change with respect to the negative control (PBS only), photos (from 30 mg/mL, 48 hours) | concentration from which angiogenesis activation is considered significant (inferred from results at 50 and 100 mg/mL, 70 mg/mL not tested) [mg/mL] | neovascularisation of the CAM (photos of treatment area) (VEGF 0.5 μg (20 μg/mL), 25 μl, 48 hours) | 3 parameters measured (total tube length, number of segments, number of branch points), image analysis vs PBS (VEGF 0.5 μg (20 μg/mL), 48 hours)
1 | O=S(=O)([O-])OCC1OC(OC2(COS(=O)(=O)[O-])OC(COS(=O)(=O)[O-])C(OS(=O)(=O)[O-])C2OS(=O)(=O)[O-])C(OS(=O)(=O)[O-])C(OS(=O)(=O)[O-])C1OS(=O)(=O)[O-].[K+].[K+].[K+].[K+].[K+].[K+].[K+].[K+] (stereo not drawn) [KSOS, potassium sucrose octasulphate salt] | not considered to be significant | poorly developed vascular network | not considered to be significant | poorly developed vascular network | significant increase | angiogenesis activation equivalent to that observed with VEGF-A | well-developed vascular network | increase in CAM vascularisation | slight vascular change | ≥ 70 | – | –
2 | VEGF [reference compound] | – | – | – | – | – | – | – | – | – | – | anarchic neovascularisation | significant increase
